Data on 2 molecules can be found in article PMC5896373 (Molecular Pharmacology, 2018).

In experiment [1] the test system is chimeric P2X7/1 receptor 295–310. Description: cell-based. In kind it is cell-based, human. The settings on record: chimera 295–310.
Procedure: Additional point mutants were made using the QuikChange mutagenesis kit (Stratagene California, La Jolla, CA). The production of the correct mutations and absence of coding errors was determined by DNA sequencing (Automated ABI Sequencing Service, University of Leicester, UK). cRNA was generated for the mutants and 50 nl (50 ng) was injected into manually defoliculated stage V Xenopus laevis oocytes using an Inject+Matic microinjector (J.A. Gabay, Inject+Matic, Geneva, Switzerland). Injected oocytes were stored at 16°C in ND96 buffer [in millimolar concentrations, NaCl 96, KCl 2, CaCl2 1.8, MgCl2 1, sodium pyruvate 5, and HEPES 5 (pH 7.6) supplemented with 50 μg/ml gentamycin and 50 μg/ml tetracycline]. Three to seven days postinjection two-electrode voltage clamp recordings were made from oocytes bathed in divalent-free ND96 buffer (in millimolar concentrations, NaCl 96, KCl 2, sodium pyruvate 5, HEPES 5, and 0.1 flufenamic acid, pH 7.6). Oocytes were voltage clamped at a holding potential of −60 mV with a GeneClamp500B amplifier (Molecular Devices).
(§1) Inhibition by the antagonists was expressed as the percentage of the peak current amplitude of an EC90 concentration of ATP recorded before the application of antagonist (ATP gave reproducible responses to ATP in the absence of antagonist). Inhibition curves were fitted with the Hill equation (variable slope) using GraphPad Prism 6 (GraphPad Software, San Diego, CA). […] Individual concentration-response curves were generated for individual experiments, and statistical analysis was carried out on the data generated. […] Data are shown as mean ± S.E.M. In all cases n ≥ 3 for all data points.
Experiment [2] deals with P2X7R left flipper point mutant D280A. Kind of experiment: Two-electrode voltage clamp of ATP-evoked currents in Xenopus oocytes. In kind it is cell-based, human.
Procedure: (§2) The production of the correct mutations and absence of coding errors was determined by DNA sequencing (Automated ABI Sequencing Service, University of Leicester, UK). cRNA was generated for the mutants and 50 nl (50 ng) was injected into manually defoliculated stage V Xenopus laevis oocytes using an Inject+Matic microinjector (J.A. Gabay, Inject+Matic, Geneva, Switzerland). Injected oocytes were stored at 16°C in ND96 buffer [in millimolar concentrations, NaCl 96, KCl 2, CaCl2 1.8, MgCl2 1, sodium pyruvate 5, and HEPES 5 (pH 7.6) supplemented with 50 μg/ml gentamycin and 50 μg/ml tetracycline]. Three to seven days postinjection two-electrode voltage clamp recordings were made from oocytes bathed in divalent-free ND96 buffer (in millimolar concentrations, NaCl 96, KCl 2, sodium pyruvate 5, HEPES 5, and 0.1 flufenamic acid, pH 7.6). Oocytes were voltage clamped at a holding potential of −60 mV with a GeneClamp500B amplifier (Molecular Devices).
(§3) Inhibition by the antagonists was expressed as the percentage of the peak current amplitude of an EC90 concentration of ATP recorded before the application of antagonist (ATP gave reproducible responses to ATP in the absence of antagonist). Inhibition curves were fitted with the Hill equation (variable slope) using GraphPad Prism 6 (GraphPad Software, San Diego, CA). […]
The target in experiment [3] is T1, chimeric P2X7R with left flipper 280–284 of P2X4 (Homo sapiens, UniProt Q99572, D280T/I21V/K281R/M24R/N16P/N25R/N284E/Q22R/R20V/S23N/T19I/T282D/T283V/Y26L).
T1 sequence (Q99572 1-595 N16P/T19I/R20V/I21V/Q22R/S23N/M24R/N25R/Y26L/D280T/K281R/T282D/T283V/N284E): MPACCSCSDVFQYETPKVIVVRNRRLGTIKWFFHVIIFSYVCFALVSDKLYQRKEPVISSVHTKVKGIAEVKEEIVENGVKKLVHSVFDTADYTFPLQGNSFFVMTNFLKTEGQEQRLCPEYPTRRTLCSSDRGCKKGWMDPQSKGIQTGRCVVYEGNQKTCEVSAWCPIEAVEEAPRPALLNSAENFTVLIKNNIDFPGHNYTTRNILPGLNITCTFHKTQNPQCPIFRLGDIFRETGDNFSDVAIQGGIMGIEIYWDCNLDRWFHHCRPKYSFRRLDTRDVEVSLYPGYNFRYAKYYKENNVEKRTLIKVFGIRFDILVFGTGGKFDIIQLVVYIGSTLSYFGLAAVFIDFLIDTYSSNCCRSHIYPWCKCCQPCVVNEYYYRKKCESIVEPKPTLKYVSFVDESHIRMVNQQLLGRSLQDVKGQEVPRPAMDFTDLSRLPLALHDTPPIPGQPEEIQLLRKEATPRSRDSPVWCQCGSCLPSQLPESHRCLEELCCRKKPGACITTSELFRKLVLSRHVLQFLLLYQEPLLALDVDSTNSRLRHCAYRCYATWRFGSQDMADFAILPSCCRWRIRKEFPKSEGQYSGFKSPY
The settings on record: chimera 280–284 of P2X4.
Procedure: as §2, §1

For a further experiment, the target named is T2, P2X7R point mutant L97P (Homo sapiens, UniProt Q99572, I21V/L97P/M24R/N16P/N25R/Q22R/R20V/S23N/T19I/Y26L).
T2 construct: expressed in transfected cells; host or cells: Xenopus laevis oocytes (cRNA injection)
Kind of experiment: cell-based.

For experiment [4], the system named is P2X7R left flipper point mutant N284A. Kind of experiment: Two-electrode voltage clamp of ATP-evoked currents in Xenopus oocytes. Format: cell-based, human. For orientation: Two-electrode voltage clamp holds a large cell at a set potential and records current.
Procedure: as §2, §3
In experiment [5] the test system is P2X7R left flipper point mutant K281A. Described as above. In kind it is cell-based, human.
Procedure: Injected oocytes were stored at 16°C in ND96 buffer [in millimolar concentrations, NaCl 96, KCl 2, CaCl2 1.8, MgCl2 1, sodium pyruvate 5, and HEPES 5 (pH 7.6) supplemented with 50 μg/ml gentamycin and 50 μg/ml tetracycline]. Three to seven days postinjection two-electrode voltage clamp recordings were made from oocytes bathed in divalent-free ND96 buffer (in millimolar concentrations, NaCl 96, KCl 2, sodium pyruvate 5, HEPES 5, and 0.1 flufenamic acid, pH 7.6). Oocytes were voltage clamped at a holding potential of −60 mV with a GeneClamp500B amplifier (Molecular Devices).
Electrophysiological traces were digitized with a Digidata 1322A and collected using pCLAMP 8.2 software (Molecular Devices, Menlo Park, CA). An EC90 concentration of ATP was used to test antagonist sensitivity for the P2X7-2Nβ and mutant receptors [ATP sensitivity of the chimeras and mutants are reported in [Allsopp et al. (2017)]] to standardize for any changes in ATP sensitivity.
Inhibition by the antagonists was expressed as the percentage of the peak current amplitude of an EC90 concentration of ATP recorded before the application of antagonist (ATP gave reproducible responses to ATP in the absence of antagonist). […] Any significant differences from the P2X7-2Nβ control were calculated by one-way analysis of variance, followed by Dunnett’s test (using GraphPad Prism 6). […]
Experiment [6] has as its target T3, chimeric P2X7/1 receptor 210–217 (Homo sapiens, UniProt Q99572, G211E/I214K/I21V/INS213AAHM/L212V/M24R/N16P/N25R/P210E/Q22R/R20V/S23N/T19I/T217L/Y26L).
T3 construct: expressed in transfected cells; host or cells: Xenopus laevis oocytes (cRNA injection)
T3 sequence (Q99572 with tags, fused parts or gaps N16P/T19I/R20V/I21V/Q22R/S23N/M24R/N25R/Y26L/P210E/G211E/L212V/INS213AAHM/I214K/T217L): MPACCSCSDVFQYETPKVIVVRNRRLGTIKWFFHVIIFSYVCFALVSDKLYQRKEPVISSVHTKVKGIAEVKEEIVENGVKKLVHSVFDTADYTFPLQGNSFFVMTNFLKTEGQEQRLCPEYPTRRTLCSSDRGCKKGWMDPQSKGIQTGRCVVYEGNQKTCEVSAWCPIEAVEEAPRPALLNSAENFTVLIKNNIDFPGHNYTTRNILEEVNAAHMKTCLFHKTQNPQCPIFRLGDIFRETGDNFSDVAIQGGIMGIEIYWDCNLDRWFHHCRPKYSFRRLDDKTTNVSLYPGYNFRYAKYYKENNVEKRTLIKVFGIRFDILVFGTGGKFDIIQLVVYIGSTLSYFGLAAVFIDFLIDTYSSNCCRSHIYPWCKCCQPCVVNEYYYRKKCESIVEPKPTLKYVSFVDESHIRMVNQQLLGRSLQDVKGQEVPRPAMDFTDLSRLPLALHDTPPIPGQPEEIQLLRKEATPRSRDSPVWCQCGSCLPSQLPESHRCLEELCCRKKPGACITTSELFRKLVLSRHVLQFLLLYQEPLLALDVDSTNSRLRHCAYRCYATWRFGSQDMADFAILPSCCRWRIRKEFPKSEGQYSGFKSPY
More on the design: method as in Allsopp et al., 2017. The settings on record: chimera 210–217; ref Allsopp et al., 2017; cited from earlier work.

The target of the next experiment is T4, P2X7-2Nβ 73–79 deletion (Homo sapiens, UniProt Q99572, DEL73-79/I21V/M24R/N16P/N25R/Q22R/R20V/S23N/T19I/Y26L).
T4 construct: expressed in transfected cells; host or cells: Xenopus laevis oocytes (cRNA injection)
T4 sequence (Q99572 with tags, fused parts or gaps N16P/T19I/R20V/I21V/Q22R/S23N/M24R/N25R/Y26L/DEL73-79): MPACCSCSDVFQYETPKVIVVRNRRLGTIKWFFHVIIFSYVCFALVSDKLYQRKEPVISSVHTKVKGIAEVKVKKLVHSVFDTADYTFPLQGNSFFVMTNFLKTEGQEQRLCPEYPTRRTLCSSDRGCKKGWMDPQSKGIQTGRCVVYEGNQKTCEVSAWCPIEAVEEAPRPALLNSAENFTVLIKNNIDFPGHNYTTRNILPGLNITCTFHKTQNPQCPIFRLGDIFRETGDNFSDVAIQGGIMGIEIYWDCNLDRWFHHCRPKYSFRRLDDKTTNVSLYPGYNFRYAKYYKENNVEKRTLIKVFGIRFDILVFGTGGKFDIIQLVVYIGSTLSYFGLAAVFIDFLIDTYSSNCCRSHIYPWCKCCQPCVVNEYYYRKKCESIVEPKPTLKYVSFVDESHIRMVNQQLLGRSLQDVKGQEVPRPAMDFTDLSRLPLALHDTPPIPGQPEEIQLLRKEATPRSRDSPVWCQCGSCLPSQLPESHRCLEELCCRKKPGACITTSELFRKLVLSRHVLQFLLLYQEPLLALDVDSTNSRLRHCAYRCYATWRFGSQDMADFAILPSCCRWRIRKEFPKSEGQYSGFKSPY
More on the design: method as in Allsopp et al., 2017. Conditions: ref Allsopp et al., 2017; cited from earlier work.

Each structure is given as a SMILES string.

T2 sequence (Q99572 whole entry N16P/T19I/R20V/I21V/Q22R/S23N/M24R/N25R/Y26L/L97P): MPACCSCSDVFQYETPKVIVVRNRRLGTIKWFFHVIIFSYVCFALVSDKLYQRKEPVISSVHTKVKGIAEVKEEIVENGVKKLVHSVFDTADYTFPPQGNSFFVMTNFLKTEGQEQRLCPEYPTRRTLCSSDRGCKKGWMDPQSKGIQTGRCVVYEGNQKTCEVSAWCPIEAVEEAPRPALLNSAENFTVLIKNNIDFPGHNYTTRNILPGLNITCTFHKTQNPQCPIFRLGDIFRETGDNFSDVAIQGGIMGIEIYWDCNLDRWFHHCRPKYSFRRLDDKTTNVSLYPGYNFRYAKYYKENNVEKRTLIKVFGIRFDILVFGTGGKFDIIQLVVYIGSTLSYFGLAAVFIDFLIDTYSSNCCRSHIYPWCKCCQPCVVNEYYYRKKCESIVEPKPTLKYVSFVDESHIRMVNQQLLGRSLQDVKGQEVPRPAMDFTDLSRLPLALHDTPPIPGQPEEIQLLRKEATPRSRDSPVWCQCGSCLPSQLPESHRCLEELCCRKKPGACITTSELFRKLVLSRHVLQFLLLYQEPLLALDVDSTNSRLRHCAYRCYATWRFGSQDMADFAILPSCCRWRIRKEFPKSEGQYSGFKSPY
Procedure for P2X7R point mutant L97P: as §2, §3

As to `COc1ccc(CC(=O)NC(N=C(NC#N)Nc2cccc3ncccc23)C(C)(C)C)cc1OC` (centres unmarked) [A740003, N-[1-[[(cyanoamino)(5-quinolinylamino)methylene]amino]-2,2-dimethylpropyl]-3,4-dimethoxybenzeneacetamide], the “fold decrease in antagonist sensitivity relative to P2X7-2Nβ” value in experiment [1] is recorded as approximately 5 fold; in experiment [3] it was approximately 10 fold; in experiment [5] it was approximately 4 fold. The “effect on antagonist sensitivity relative to P2X7-2Nβ” value in experiment [2] and in experiment [4] was “no effect” throughout. The midpoint of inhibition at P2X7R point mutant L97P, the IC50, lay at 398 nM.

On to `Cl.Cl.O=C(CC12CC3CC(CC(C3)C1)C2)Nc1cccc2nc(NCCNCCO)ccc12` [AZ10606120, N-[2-[[2-[(2-hydroxyethyl)amino]ethyl]amino]-5-quinolinyl]-2-tricyclo[3.3.1.13,7]dec-1-ylacetamide dihydrochloride], for which the “effect on antagonist sensitivity” value in experiment [6] is “no change”. The “fold decrease in antagonist sensitivity” value at P2X7-2Nβ 73–79 deletion is given as 40 fold.
